Measured values: patent US20200368211A1, “INHIBITION OF GAMMA-GLUTAMYLTRANSFERASE AND GLUTATHIONE CATABOLISM TO ENHANCE THE EFFICACY OF NF-KB SIGNALLING PATHWAY INHIBITORS” (UNIVERSITAET HEIDELBERG, priority 2017, published 2020)
Entries after “also recorded” stand apart in the source; their conditions may differ.

Tests used:
MOLM13 cells [1] = assay: MTT cell proliferation assay, MOLM13 cells; type: cell-based, human; settings: for Effect of auranofin and BSO low-dose combination on activity of NF-κB inhibitors, MOLM13: auranofin 0.25-0.5 μM plus BSO 1.25-10 μM with BAY 11-7082 or EF24
Method: For metabolic activity assays, here MTT-assays, cell density was 3×10^4 cells per well (96 well plate). For ROS/superoxide detection assays cell density was 1×10^5 per tube (volume 1 ml). […] The MTT or XTT assay is the most reliable for assessment of cell growth. In principal all assays are based on staining of viable cells after treatment. Cytotoxic effects in cell lines may also be assessed by [^3H] thymidine incorporation (see below). Cell proliferation was assessed by the MTT assay. […] The plates were incubated for 72 h under standard conditions. After addition of 15 μl of a 5 mg/ml MTT solution (MTT; Sigma, Germany) to each well and incubation for another 4 h, 100 μl/well of a 10% sodium dodecyl sulphate solution in 0.01 M hydrochloric acid were added and the plates were incubated overnight under the same conditions (stain development). Subsequently, the absorbance of each well at 540 nm (reference wavelength 690 nm) was recorded with an absorbance plate reader (Sunrise, Tecan, Switzerland). Blank control values (no drug, no cells) were subtracted from the sample values and the means of replicate wells for each drug dilution and the control (cells grown in absence of the drug) were used to calculate the extent of relative cell proliferation (as percentage of the control) and growth inhibition.

MEC1 cells [2] = assay: MTT cell proliferation assay, MEC1 cells; type: cell-based, human; settings: for Effect of auranofin and BSO low-dose combination on activity of NF-κB inhibitors, MEC1: auranofin 0.25-0.5 μM plus BSO 1.25-10 μM with BAY 11-7082 or EF24
Method: For metabolic activity assays, here MTT-assays, cell density was 3×10^4 cells per well (96 well plate). For ROS/superoxide detection assays cell density was 1×10^5 per tube (volume 1 ml). For NF-κB family member activation assays nuclear cell extracts were used (9×10^6 cells/6 ml volume in 6 well plates). The MTT or XTT assay is the most reliable for assessment of cell growth. In principal all assays are based on staining of viable cells after treatment. Cytotoxic effects in cell lines may also be assessed by [^3H] thymidine incorporation (see below). Cell proliferation was assessed by the MTT assay. […] The plates were incubated for 72 h under standard conditions. After addition of 15 μl of a 5 mg/ml MTT solution (MTT; Sigma, Germany) to each well and incubation for another 4 h, 100 μl/well of a 10% sodium dodecyl sulphate solution in 0.01 M hydrochloric acid were added and the plates were incubated overnight under the same conditions (stain development). Subsequently, the absorbance of each well at 540 nm (reference wavelength 690 nm) was recorded with an absorbance plate reader (Sunrise, Tecan, Switzerland). Blank control values (no drug, no cells) were subtracted from the sample values and the means of replicate wells for each drug dilution and the control (cells grown in absence of the drug) were used to calculate the extent of relative cell proliferation (as percentage of the control) and growth inhibition.

[3] = human plasma, stated as achievable; cited from earlier work
HL60 cells = assay: MTT cell proliferation assay, HL60 cells; type: cell-based, human; settings: 200 μM OU749, 10% HS
Method: For assessment of cytostatic and/or cytotoxic effects HL60 cells were washed in serum-free RPMI-1640 medium supplemented with 2 mM L-glutamine and 1% penicillin/streptomycin and diluted to 1.25×10^5/ml (logarithmic cell growth). Cells were incubated with OU749 for 10 minutes prior to addition of serum (FCS or HS, both 10%) to washed cells resulting in a density of 1.11×10^5/ml. For MTT-assays cell density was 1×10^4 cells per well (96 well plate).
The MTT or XTT assay is the most reliable for assessment of cell growth. In principal all assays are based on staining of viable cells after treatment. Cytotoxic effects in cell lines may also be assessed by [^3H] thymidine incorporation (see below). Cell proliferation was assessed by the MTT assay. After washing in serum-free medium, pre-incubation with inhibitors of the glutathione catabolism, and addition of defined serum or albumin or serum+albumin concentrations, 90-μl aliquots of the cell suspension (density see above) were dispensed into 96-well flat-bottomed microtitre plates containing 10 μl/well of serial drug dilutions. The plates were incubated for 72 h under standard conditions. After addition of 15 μl of a 5 mg/ml MTT solution (MTT; Sigma, Germany) to each well and incubation for another 4 h, 100 μl/well of a 10% sodium dodecyl sulphate solution in 0.01 M hydrochloric acid were added and the plates were incubated overnight under the same conditions (stain development). Subsequently, the absorbance of each well at 540 nm (reference wavelength 690 nm) was recorded with an absorbance plate reader (Sunrise, Tecan, Switzerland). Blank control values (no drug, no cells) were subtracted from the sample values and the means of replicate wells for each drug dilution and the control (cells grown in absence of the drug) were used to calculate the extent of relative cell proliferation (as percentage of the control) and growth inhibition. Since inhibitors were initially dissolved in DMSO, serial drug dilutions and controls were prepared to finally achieve 0.2% DMSO in all wells (total volume 100 μl); no anti-proliferative effects could be observed at this DMSO concentration in the investigated cell lines.
After washing in serum-free medium cells were diluted to desired density (3.70×10^5/ml for MEC1 and MOLM13, 1.25×10^5/ml for HL60) and HS and FCS was added both in a final concentration of 10%. Then 90-μl aliquots of the cell suspension (densities after addition of serum: 3.33×10^5/ml for MEC1 and MOLM13, 1.1×10^5/ml for HL60) were dispensed into 96-well flat-bottomed microtitre plates containing 10 μl/well of serial drug dilutions of NF-κB inhibitors. The cell concentrations in the 96 well plate were: 3×10^4/well for MEC1 and MOLM13, 1×10^4/well for HL60.
Then 90-μl aliquots of the cell suspension (densities after addition of serum: 3.33×10^5/ml for MEC1 and MOLM13, 1.1×10^5/ml for HL60) were dispensed into 96-well flat-bottomed microtitre plates containing 10 μl/well of serial drug dilutions of NF-κB inhibitors. The cell concentrations in the 96 well plates were: 3×10^4/well for MEC1 and MOLM13, 1×10^4/well for HL60.

[4] = tested on: NF-κB family of transcription factors (p65, p50, c-Rel, p52 and RelB); assay: NF-κB family member activation (TransAM, nuclear extracts), MEC1 cells; type: cell-based, human; settings: 200 μM OU749, 10% HS, 4 h
Method: (§1) After 4 h incubation with defined concentrations of inhibitors of the NF-κB signalling pathway with or without co-incubation with OU749, nuclear extracts were prepared using the AM nuclear extract kit (Active Motif, La Hulpe, Belgium) according to the manufacturer's protocol. Protein concentration of the respective extracts was measured according to the Bradford method and 10 μg of total protein per preparation was used for assessment of the NF-κB family member activation.
(§2) For the assessment of NF-κB family member activation (p65, p50, c-Rel, p52 and RelB) the TransAM® NF-κB Family Transcription Factor Assay kit was applied (Active Motif, La Hulpe, Belgium) according to the manufacturer's instructions. Results were expressed as relative activation levels (relative to the activation of DMSO controls either in the presence of 10% FCS or 10% HS) and compared between different experimental settings.

MEC1 cells [5] = assay: Intracellular ROS/superoxide detection by flow cytometry, MEC1 cells; type: cell-based, human
Method: (§3) Intracellular ROS/superoxide levels were assessed by the ROS/superoxide Detection Assay Kit (ab139476, Abcam, Cambridge, UK) according to the manufacturer's protocol.
(§4) Cells were incubated with OU749 for 10 minutes prior to addition of serum or albumin (FCS or HS, both 10%, BSA or different HSA preparations as indicated), or albumin-supplemented FCS (supplementation with HSA or BSA: final albumin concentration 4-5 mg/ml). The final cell concentration was 1×10^5/ml/tube (volume 1 ml). Mean fluorescence intensities of at least 10000 events were assessed and compared.
(§5) ROS and superoxide levels were assessed by flow cytometry using the cellular ROS/superoxide Detection Assay Kit (ab139476, Abcam, Cambridge, UK) according to the manufacturer's protocol. […] Mean fluorescence intensities of at least 10000 events were assessed and compared.

MOLM13 cells [6] = assay: Intracellular ROS/superoxide detection by flow cytometry, MOLM13 cells; type: cell-based, human
Method: as §3, §4, §5

[7] = tested on: NF-κB family of transcription factors (p65, p50, c-Rel, p52 and RelB); assay: NF-κB family member activation (TransAM, nuclear extracts), MOLM13 cells; type: cell-based, human; settings: 200 μM OU749, 10% HS, 4 h
Method: as §1, §2

[8] = OU749 100 μM for 10% FCS, 200 μM for 10% HS or BSA/HSA 20 mg/ml, versus DMSO
[9] = with BAY 11-7082, 10% FCS (to a lesser extent 10% HS), versus H2O

CCCCS(=N)(=O)CCC(N)C(=O)O (centres unmarked) [BSO, buthionine sulfoximine]
Effect of auranofin and BSO low-dose combination on activity of NF-κB inhibitors, MOLM13 (MOLM13 cells [1]; 10% HS): enhance/restore the activity of NF-κB inhibitors | Effect of auranofin and BSO low-dose combination on activity of NF-κB inhibitors, MEC1 (MEC1 cells [2]; 10% HS): enhance/restore the activity of NF-κB inhibitors

C/C(O)=C(\C#N)C(=O)Nc1ccc(C(F)(F)F)cc1 [A77 726]
Achievable plasma concentrations of the active metabolite of leflunomide [3]: about 176 μg/ml; also recorded: about 635 μM

CC(=O)OC[C@H]1O[C@@H]([S-])[C@H](OC(C)=O)[C@@H](OC(C)=O)[C@@H]1OC(C)=O.CCP(CC)CC.[Au+] [auranofin]
Effect of auranofin and BSO low-dose combination on activity of NF-κB inhibitors, MOLM13 (MOLM13 cells [1]; 10% HS): enhance/restore the activity of NF-κB inhibitors | Effect of auranofin and BSO low-dose combination on activity of NF-κB inhibitors, MEC1 (MEC1 cells [2]; 10% HS): enhance/restore the activity of NF-κB inhibitors

COc1ccc(Cc2nnc(NS(=O)(=O)c3ccccc3)s2)cc1 [OU749, N-[5-(4-methoxybenzyl)-1,3,4-thiadiazol-2-yl]benzenesulfonamide]
Toxic effects of OU749 in HS-supplemented systems, MOLM13 (MOLM13 cells [1]; 200 μM OU749, 10% HS): no toxic effects | OU749 concentration above which anti-proliferative effects are apparent, MOLM13, 10% FCS (MOLM13 cells [1]; 10% FCS, 72 h, single agent): above 50 μM | OU749 concentration at which anti-proliferative effects appear, MOLM13, 10% HS (MOLM13 cells [1]; 10% HS, 72 h, single agent): ≥ 200 µM | Toxic effects of OU749 in HS-supplemented systems, MEC1 (MEC1 cells [2]; 200 μM OU749, 10% HS): no toxic effects | OU749 concentration above which anti-proliferative effects are apparent, MEC1, 10% FCS (MEC1 cells [2]; 10% FCS, 72 h, single agent): above 50 μM | OU749 concentration at which anti-proliferative effects appear, MEC1, 10% HS (MEC1 cells [2]; 10% HS, 72 h, single agent): ≥ 200 µM | Toxic effects of OU749 in HS-supplemented systems, HL60 (HL60 cells): no toxic effects | Nuclear levels of NF-κB transcription factors, OU749 alone in HS, MEC1 [4]: increased nuclear levels of different members of the NF-κB family of transcription factors | ROS levels, OU749 versus DMSO, MEC1 in HS medium (MEC1 cells [5]; 200 μM OU749, 10% HS): enhanced ROS levels | Intracellular ROS levels, OU749 in presence of serum and albumin, MEC1 (MEC1 cells [5]; [8]): increases intracellular ROS levels | ROS levels, OU749 versus DMSO, MOLM13 in HS medium (MOLM13 cells [6]; 200 μM OU749, 10% HS): enhanced ROS levels | Intracellular ROS levels, OU749 in presence of serum and albumin, MOLM13 (MOLM13 cells [6]; [8]): increases intracellular ROS levels | Nuclear levels of NF-κB transcription factors, OU749 alone in HS, MOLM13 [7]: increased nuclear levels of different members of the NF-κB family of transcription factors

N[C@@H](CS)C(=O)NCC(=O)O [cysteinyl-glycin]
Effect of cysteinyl-glycin on activity of NF-κB inhibitors, MOLM13 (MOLM13 cells [1]; [9]): decrease the activity of NF-κB inhibitors | Effect of cysteinyl-glycin on activity of NF-κB inhibitors, MEC1 (MEC1 cells [2]; [9]): decrease the activity of NF-κB inhibitors
